Assay results from US7700553B2, “Selective inhibition of NF-κB activation by peptides designed to disrupt nemo oligomerization” (priority 2003, dated 2010).
Ends that are not written are not given here. Peptide text beside a SMILES is read from it. * marks the point of attachment. BODIPYFLEthylmaleimide = Cc1cc(C)n2c1C=C1C=CC(CCC(=O)NCCN3C(=O)CC(*)C3=O)=[N+]1[B-]2(F)F; BODIPY = not defined here; Cam = NC(=O)C*

Experiments:
lymphocytes B = experiment: Cytotoxicity by MTS assay, microscope observation and FACS; conditions: for Cytotoxicity MTS Assay: MTS cell proliferation assay (Promega); for cellular proportion of cell death by FACS: pre-B lymphocytes, 20 μM
[1] = test system: human retinoblastoma cell lines Y79; type: cell-based; conditions: for Y79 cell died: 5 μM
Protocol: FIG. 8: Cell Death Induced in the Retinoblastoma Cell Line Y79 by Ant-CC2 and Ant-LZ Peptides Rb cell line Y79 were treated with various concentration of the Ant-CC2 (WT) (filled squares) or Ant-CC2 (Mu) (open squares) (A), or Ant-LZ (WT) (filled circles), or Ant-LZ (Mu) (open circles) (B), or Ant peptide (open triangle) (C) for 3 hours (A, B) or 16 hours (C). Cell survival was then evaluated using the MTS assay as described in “Materials and methods”
The detection of cell death was performed using the MTS assay provided by Promega (CellTiter 96® AQueous one solution cell proliferation assay). Briefly, 0.3×10^6 Y79 cells in 450 μl were treated with 50 μl of the wild type Ant-CC2 and Ant-LZ peptides (0.1 to 20 μM) or their mutants Ant-CC2 (Mu), Ant-LZ (Mu) or the Ant or left untreated in serum-free RPMI medium at 37° C. After an incubation of […], an aliquot of the cell suspension (200 μl, 0.12×10^6 cells), was then transferee in 96-well plates and mixed with the MTS solution (40 μl) containing the MTS compound and the phenazine ethosulfate. Two hours after, the quantity of formazan produced by viable cells was measured using an automated microplate reader (Bio-TeK Instruments, INC) at 490 nm absorbance. Cell survival was observed under microscope and was estimated as a percentage of the value of untreated controls. The background of the reaction was determined by mixing the MTS solution with cell-free RPMI medium. To increase the sensitivity of the cell death assay, the present inventors used peptides devoid of BODIPY-labeling because the absorption spectra of the fluorophor overlaps with that of the formazan product. All experiments were repeated twice and each experiment condition was repeated in duplicate wells in each experiment.
Given that specific NF-κB inhibition may trigger apoptosis of cancer cells, the present inventors examined the effects of both cell-permeable Ant-LZ and Ant-CC2 peptides on human retinoblastoma cell viability. In these experiments, the present inventors used NEMO-derived polypeptides without a N-terminal BODIPY labeling to prevent any interference with the MTS assay (see “Materials and Methods”). […] The effect of the Ant-LZ peptide on cell death was stronger than that of the Ant-CC2. This induction of cell death was significant since Rb cell survival was 20% and 65% with the Ant-LZ and the Ant-CC2 peptides respectively when cancer cells were treated for 3 hours at a 20 μM concentration. […] In contrast, 80% and 55% of Y79 cell died in the presence of Ant-LZ and Ant-CC2 respectively at 5 μM concentration (FIG. 8C).

70Z/3-C3 cells = experiment: FACS analysis of cellular uptake of BODIPY-labeled peptides; type: cell-based, murine; conditions: 2 μM BODIPY-peptide, 2 h at 37° C.
Protocol: All experiments were performed in duplicates.
The uptake of BODIPY labeled NEMO peptides into living cells were monitored by fluorescence activated cell sorting (FACS) which is a conventional tool used to quantify cellular internalization.
Then present inventors next investigated the kinetic and concentration dependency of cellular uptake for the Ant-CC2 BODIPY peptide keeping in mind that the transduction of other NEMO peptides should occur in a similar fashion (FIGS. 2B and 2C).

[2] = test system: LPS-induced NF-κB activation in 70Z/3-C3 cells; experiment: NF-κB inhibition assay, first procedure (NF-κB dependent β-galactosidase reporter, LPS stimulation); type: cell-based, murine; conditions: for effect on LPS-induced NF-κB activation (in words): 20 μM peptide, 2 h, then 5 h LPS; for effect on LPS-induced NF-κB activation of peptides not fused to antennapedia (in words): 2 h peptide, then 3 h LPS (FIG. 3D)
Protocol: The resulting cell line, 70Z3-C3, was incubated for 2 hours in the absence or in the presence of 20 μM of antennapedia peptide (Ant), or BODIPY-labeled antennapedia peptide (BODIPY-Ant), or BODIPY-labeled antennapedia peptide coupled to CC2 (BODIPY-Ant-CC2) or LZ (BODIPY-Ant-LZ) peptides, After peptide internalization, cells were treated for 5 hours with LPS (3 μg/ml, (+) in left panel) or untreated (right panel and (−) in left panel) and the NF-κB activity was measured by β-galactosidase assay. […] Cells were treated as in (A) but with different concentration of peptide as indicated. The potential of each peptide to inhibit LPS-induced NF-κB activation was measured by determining the IC50 value that correspond to 50% inhibition of LPS-induced NF-κB activation as compared to the control (no peptide) (C). […] Control (no peptide) or CC2, or LZ peptides, with (BODIPY-ANT-CC2, BODIPY-ANT-LZ) or without the antennapedia sequence at the N-terminus (CC2, LZ) were incubated for 2 hours with 70Z3-C3 cells followed with (+) or without (−) the LPS-treatment for 3 hours. NF-κB activity was then measured by β-galactosidase assay.
In a first procedure 2.2×10^5 70Z/3-C3 cells in 220 μl of RPMI 1640 supplemented with 10% fetal calf serum (FCS) and 50 μM β-mercaptoethanol were placed in a 96-well plate and incubated with various concentrations of peptide (0 to 20 μM) at 37° C. in 5% CO2 incubator. After two hours an equal portion (100 μl) of each cell sample transferred in two wells containing each 10^5 cells. One aliquot of cells was then treated for 5 hours with lipopolysaccharides from Salmonella abortus (Sigma) at 0.5 μg/ml final concentration, and the other one left-treated. After 5 hours, cells were centrifuged at 400×g for 5 min at room temperature and the cell pellets were washed three times with cold PBS (250 μl) by centrifugation. Cells were then lysed in the lysis buffer (25 mM tris-phosphate buffer at pH 7.8 containing 8 mM magnesium chloride, 1 mM dithioerythreitol, 1% Triton X-100, 15% glycerol and a protease inhibitor mixture (Roche)), and samples were centrifuged at 4° C. for 20 min to clarify the lysate. The supernatant was then kept on ice, and 30 μl was then assayed to measure the β-galactosidase activity with a plate luminometer (Berthold) using the galacton-star as chemiluminescent substrate (BD Biosciences Clontech, Bronstein et al., 1989). Background of reaction was measured by mixing for 1 hour 30 μl of lysis buffer with the reaction buffer (196 μl) and the galacton-star substrate (4 μl) provided by BD Biosciences.

[3] = Kd and cooperativity indice of NLM peptides by Hill coefficient calculation; type: binding; conditions: for Kd: Hill equation fit, read-out: dissociation constant Kd
Excerpt: The present inventors compared NLM-DR to the corresponding NLM peptide by measuring the respective cooperativity indices, which evidence an advantage of NLM-DR mutated peptide over the wild-type.
The calculation of the “cooperativity indice” by means of Hill coefficient is based on the following formula Boundmax×L^n/(KD^n+L^n)
Boundmax is the maximum concentration of the bound ligand,
L is the concentration of the free ligand,
n is the cooperativity indice and
KD, is the affinity constant of the ligand by the protein.
If these values were to be compared to those obtained from the curves without accounting for cooperativity, the affinity of NLM-DR peptide would be 75 times higher than the affinity of wild-type NLM peptide.

[4] = longer treatment (FIG. 8C, 16 hours)

CC[C@H](C)[C@H](NC(=O)[C@H](CC(=O)O)NC(=O)[C@H](C)NC(=O)[C@H](CCC(N)=O)NC(=O)[C@H](C)NC(=O)[C@H](CCCCN)NC(=O)[C@H](CC(C)C)NC(=O)[C@H](CCCNC(=N)N)NC(=O)[C@H](CCCNC(=N)N)NC(=O)[C@H](CCCNC(=N)N)NC(=O)[C@H](CCC(N)=O)NC(=O)[C@H](CCCNC(=N)N)NC(=O)[C@H](CCCNC(=N)N)NC(=O)[C@H](CCCCN)NC(=O)[C@H](CCCCN)NC(=O)[C@H](CCCNC(=N)N)NC(=O)CNC(=O)[C@H](Cc1ccc(O)cc1)NC(=O)[C@H](CSC1CC(=O)N(CCNC(=O)CCC2=[N+]3C(=Cc4c(C)cc(C)n4[B-]3(F)F)C=C2)C1=O)NC(C)=O)C(=O)N[C@@H](Cc1ccc(O)cc1)C(=O)N[C@@H](CCCCN)C(=O)N[C@@H](C)C(=O)N[C@@H](CCCNC(=N)N)C(=O)N[C@@H](Cc1ccccc1)C(=O)N[C@@H](CCC(N)=O)C(=O)N[C@@H](C)C(=O)N[C@@H](CCC(=O)O)C(=O)N[C@@H](CCCNC(=N)N)C(=O)N[C@@H](Cc1c[nH]cn1)C(=O)N[C@@H](C)C(=O)N[C@@H](CCCNC(=N)N)C(=O)N[C@@H](CCC(=O)O)C(=O)N[C@@H](CCCCN)C(N)=O (stereo partly shown) [BODIPY-TAT-NLM-DR] (Ac-C(BODIPYFLEthylmaleimide)YGRKKRRQRRRLKAQADIYKARFQAERHAREK-NH2)
Cytotoxicity Cell morphology FACS (lymphocytes B): no
Cytotoxicity MTS Assay (lymphocytes B): no
Cytotoxicity Cell morphology Microscope (lymphocytes B): no

Ac-C(Cam)RQIKIWFQNRRMKWKKSKGMQLEDLRQQLQQAEEALVAKQELIDKLKEEAEQHKIV-NH2 [Ant-CC2]
Y79 cell died [1, 4]: 55%
cellular proportion of cell death by FACS (lymphocytes B; absence of stimuli): 9%
cellular proportion of cell death by FACS (lymphocytes B; after LPS stimulation): 13%
proportion of cells transduced (70Z/3-C3 cells): 100%

Ac-CRQIKIWFQNRRMKWKKLKAQADIYKADFQAERHAREKLVEKKEYLQEQLEQLQREFNKL-NH2 [Ant-LZ]
Y79 cell died [1, 4]: 80%
proportion of cells transduced (70Z/3-C3 cells): 100%

Ant-CC2 (Mu): mutant Ant-CC2 devoid of BODIPY-labeling (sequence of SEQ ID NO: 4) (Ac-CRQIKIWFQNRRMKWKKSKGMQLEDLRQQGQQAEEAGVAKQELGDKLKEEAEQHKIV-NH2; not fully specified (residue 1))
induction of cell death (in words) ([1]; Y79 cells, 3 hours, mutant peptides): did not induce concentration cell death
proportion of cells transduced (70Z/3-C3 cells): 100%

Ant-LZ (Mu): mutant Ant-LZ devoid of BODIPY-labeling (sequence of SEQ ID NO: 8) (Ac-CRQIKIWFQNRRMKWKKLKAQADIYKADFQAERHAREKLVEKKEYSQEQLEQSQREFNKL-NH2; not fully specified (residue 1))
proportion of cells transduced (70Z/3-C3 cells): 100%

Ant: third helix of the Antennapedia/penetratin protein, internalization peptide (SEQ ID NO: 1), without BODIPY label (CRQIKIWFQNRRMKWKK) [reference compound]
effect on LPS-induced NF-κB activation (in words) [2]: same level of NF-κB activation as the control
effect on cell survival (in words) ([1]; Y79 cells, longer treatment (FIG. 8C, 16 hours)): did not affect cell survival

B-CRQIKIWFQNRRMKWKK ({BODIPY}-CRQIKIWFQNRRMKWKK; reading uncertain) [BODIPY-Ant, reference compound]
effect on LPS-induced NF-κB activation (in words) [2]: same level of NF-κB activation as the control

B-CRQIKIWFQNRRMKWKKLAQADIYKARFQAERHAREK (CRQIKIWFQNRRMKWKKLKAQADIYKARFQAERHAREK; not fully specified (N-terminus)) [BODIPY-Ant-NLM-DR]
Cytotoxicity Cell morphology FACS (lymphocytes B): +
Cytotoxicity MTS Assay (lymphocytes B): no
Cytotoxicity Cell morphology Microscope (lymphocytes B): +

B-CRRRRRRRLKAQAKIYKARFQAERHAREK [BODIPY-R7-NLM-DR] (CRRRRRRRLKAQADIYKARFQAERHAREK; not fully specified (N-terminus))
Cytotoxicity Cell morphology FACS (lymphocytes B): no
Cytotoxicity Cell morphology Microscope (lymphocytes B): no

B-CRRRRRRRLKAQAKIYKARFQAERHAREK [BODIPY-R9-NLM-DR] (CRRRRRRRRRLKAQADIYKARFQAERHAREK; not fully specified (N-terminus))
Cytotoxicity Cell morphology FACS (lymphocytes B): no
Cytotoxicity MTS Assay (lymphocytes B): no
Cytotoxicity Cell morphology Microscope (lymphocytes B): no

LKAQADIYKADFQAERHAREKLVEKKEYLQEQLEQLQREFNKL [LZ (WT)]
effect on LPS-induced NF-κB activation of peptides not fused to antennapedia (in words) [2]: same level of activation as the control

LKAQADIYKARFQAERHAREK [NLM-DR]
Kd [3]: 170 µM
affinity of NLM-DR peptide relative to wild-type NLM peptide ([3]; values compared without accounting for cooperativity): 75 times

NLM: corresponding wild type NLM peptide covering the same 21 amino acid range as NLM-DR (LKAQADIYKADFQAERHAREK-NH2; not fully specified (N-terminus))
Kd [3]: 240 µM

SKGMQLEDLRQQLQQAEEALVAKQELIDKLKEEAEQHKIV [CC2 (WT)]
effect on LPS-induced NF-κB activation of peptides not fused to antennapedia (in words) [2]: same level of activation as the control
